From ChEMBL document CHEMBL1124894, “Synthesis and quantitative structure-activity relationships of diclofenac analogues” (J Med Chem, 1990)

Assays:
[1] = Partition coefficient (logD7.4); conditions: octanol/water, pH 7.4
Cyclooxygenase = molecular target: T1, Cyclooxygenase (Bos taurus, UniProt O62664+O62698)
T1 sequence (O62664 whole entry): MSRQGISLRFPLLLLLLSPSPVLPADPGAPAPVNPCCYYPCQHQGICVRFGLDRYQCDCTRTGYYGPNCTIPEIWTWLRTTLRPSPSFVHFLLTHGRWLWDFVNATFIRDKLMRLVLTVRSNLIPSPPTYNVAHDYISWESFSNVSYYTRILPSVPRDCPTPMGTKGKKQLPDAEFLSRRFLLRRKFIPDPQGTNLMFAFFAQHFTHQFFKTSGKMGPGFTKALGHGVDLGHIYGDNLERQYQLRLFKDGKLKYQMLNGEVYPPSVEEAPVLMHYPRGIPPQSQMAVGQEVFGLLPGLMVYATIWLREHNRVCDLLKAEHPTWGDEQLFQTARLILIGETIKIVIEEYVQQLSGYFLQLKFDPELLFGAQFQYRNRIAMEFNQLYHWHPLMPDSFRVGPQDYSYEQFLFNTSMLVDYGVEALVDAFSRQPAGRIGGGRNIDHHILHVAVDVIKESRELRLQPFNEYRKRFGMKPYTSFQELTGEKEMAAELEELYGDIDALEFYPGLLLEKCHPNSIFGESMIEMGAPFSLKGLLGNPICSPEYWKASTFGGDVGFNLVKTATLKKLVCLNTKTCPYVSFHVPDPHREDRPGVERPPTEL
T1 sequence (O62698 whole entry): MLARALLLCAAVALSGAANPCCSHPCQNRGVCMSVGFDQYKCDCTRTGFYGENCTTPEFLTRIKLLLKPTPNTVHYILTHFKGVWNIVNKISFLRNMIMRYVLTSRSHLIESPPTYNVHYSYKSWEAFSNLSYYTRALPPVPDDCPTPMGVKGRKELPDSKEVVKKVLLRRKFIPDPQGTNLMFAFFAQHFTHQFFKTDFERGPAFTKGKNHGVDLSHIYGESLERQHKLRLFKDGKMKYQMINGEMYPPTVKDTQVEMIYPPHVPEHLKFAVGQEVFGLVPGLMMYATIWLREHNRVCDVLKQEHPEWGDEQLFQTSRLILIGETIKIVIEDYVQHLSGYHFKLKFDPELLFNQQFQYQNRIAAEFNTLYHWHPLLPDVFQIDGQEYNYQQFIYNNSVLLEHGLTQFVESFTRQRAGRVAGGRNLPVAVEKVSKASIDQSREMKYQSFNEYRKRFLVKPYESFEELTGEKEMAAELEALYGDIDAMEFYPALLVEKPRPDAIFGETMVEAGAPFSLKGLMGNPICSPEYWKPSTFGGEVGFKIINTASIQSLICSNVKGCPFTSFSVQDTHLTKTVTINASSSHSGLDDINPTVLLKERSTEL
Description: In vitro inhibition of bovine prostaglandin G/H synthase, using bovine seminal vesicle microsomal preparations; IC50 in umol/L

[2] = Dissociation constant (pKa); type: physicochemical

Description for Rattus norvegicus: Inhibition of inflammatory hind paw edema, induced by Mycobacterium butyricum in rats; ED40 in umol/kg po

Compound | logD [1] | log IC50 (Cyclooxygenase) | pKa [2] | Log 1/ED40 (Rattus norvegicus)
O=C([O-])Cc1ccccc1Nc1c(Cl)cccc1Br.[Na+] | 1.44 | 0.28 | 4.2 | -0.14
Cc1cc(C)c(C)c(Nc2ccccc2CC(=O)O)c1C | 1.95 | 0.78 | 4.2 | -1.25
O=C([O-])Cc1ccccc1Nc1c(F)cccc1F.[Na+] | 0.26 | 2.36 | 4.09 | -2.24
Cc1cc(C)c(C)c(Nc2ccc(Cl)cc2CC(=O)O)c1C | 2.93 | 1.82 |  | -1.2
Cc1ccc(Cl)c(Nc2ccccc2CC(=O)[O-])c1Cl.[Na+] |  |  |  | -0.65
O=C([O-])Cc1ccccc1Nc1c(Cl)cc(F)cc1Cl.[Na+] | 1.27 | 0.05 |  | -0.47
CCc1cccc(CC)c1Nc1ccccc1CC(=O)O | 1.91 | 1.83 |  | -1.55
Cc1cccc(C)c1Nc1ccccc1CC(=O)O | 1.21 | 0.78 | 4.07 | -0.29
O=C([O-])Cc1ccccc1Nc1c(F)cccc1Cl.[Na+] | 0.56 | 1.75 |  | -0.8
O=C([O-])Cc1cc(F)ccc1Nc1c(Cl)cccc1Cl.[Na+] | 1.48 | 0.13 | 4.02 | 0.05
O=C([O-])Cc1cc(Cl)ccc1Nc1c(Cl)cccc1Cl.[Na+] | 1.97 | 0.1 |  | 0.07
O=C([O-])Cc1ccccc1Nc1ccc(F)cc1F.[Na+] | 0.55 | 2.01 |  | -2.85
O=C(O)Cc1c(Br)cccc1Nc1c(Cl)cccc1Cl | 1.87 | 1.18 |  | -3.43
O=C([O-])Cc1c(O)cccc1Nc1c(Cl)cccc1Cl.[Na+] | 1.73 | 2.33 | 4.48 | 
O=C([O-])Cc1cc(F)ccc1Nc1c(Cl)cc(F)cc1Cl.[Na+] | 1.62 | 0.25 |  | 0.25
COc1cc(Cl)c(Nc2ccccc2CC(=O)O)c(Cl)c1O [3'-HYDROXY-4'-METHOXY-DICLOFENAC] | 0.25 | 2.47 | 4.13 | -2.47
O=C(O)Cc1cc(O)ccc1Nc1c(Cl)cc(O)cc1Cl [4',5-DIHYDROXY-DICLOFENAC] | 0.27 | 3.04 |  | -2.78
O=C(O)Cc1cc(O)ccc1Nc1c(Cl)cccc1Cl [5-HYDROXY-DICLOFENAC] | 0.76 | 3.35 | 4.22 | -0.98
COc1ccc2c(c1)c(CC(=O)O)c(C)n2C(=O)c1ccc(Cl)cc1 [INDOMETHACIN] | 1 |  |  | 

Second part, led by results:

logD [1] | log IC50 (Cyclooxygenase) | pKa [2] | Compound | Log 1/ED40 (Rattus norvegicus)
1.66 | 1 | 4.2 | O=C(O)Cc1ccccc1Nc1cccc(Cl)c1Cl | 
1.03 | 0.3 |  | Cc1cccc(Nc2ccccc2CC(=O)O)c1C | -1.59
1.98 | 1.9 | 4.31 | O=C(O)Cc1ccccc1Nc1cc(Cl)cc(Cl)c1 | -2.23
1.33 | 1.85 |  | O=C(O)Cc1ccccc1Nc1ccc(Cl)cc1Cl | -1.23
1.59 | 1.3 |  | Cc1cccc(Nc2ccccc2CC(=O)O)c1Cl | -0.26
1.24 | 0 | 4.2 | COc1cc(Cl)c(Nc2ccccc2CC(=O)O)c(Cl)c1 | -0.49
0.51 | 1.86 |  | COc1c(O)cc(Cl)c(Nc2ccccc2CC(=O)O)c1Cl | -2.47
1.17 | 0 | 4.2 | Cc1cccc(Cl)c1Nc1ccccc1CC(=O)O | -0.74
1.18 | 1.04 | 3.95 | COc1ccc(Cl)c(Nc2ccccc2CC(=O)O)c1Cl | -0.96
1.64 | 0.3 | 4.24 | O=C(O)Cc1ccccc1Nc1c(Cl)cccc1I | -0.11
1.8 | 2.15 | 4.3 | O=C(O)Cc1ccccc1Nc1ccc(Cl)c(Cl)c1 | -2.53
1.54 | 1.04 | 4.3 | Cc1c(Cl)cccc1Nc1ccccc1CC(=O)O | -0.86
0.91 | 2.31 |  | O=C(O)Cc1ccccc1Nc1ccccc1Cl | -1.76
1.64 | 2 | 4.1 | O=C(O)Cc1ccccc1Nc1cc(Cl)ccc1Cl | -1.01
0.19 | 2.46 | 4.1 | O=C(O)Cc1ccccc1Nc1ccccc1 | -2.94
0.72 | 1 |  | O=C(O)Cc1ccccc1Nc1c(Cl)ccc(O)c1Cl [3'-HYDROXY-DICLOFENAC] | -1.51
0.7 | 2.15 | 4.4 | O=C(O)Cc1ccccc1Nc1c(Cl)cc(O)cc1Cl [4'-HYDROXY-DICLOFENAC] | -0.98
